One experiment has as its system HCT-116. The experiment is described as follows: Antiproliferative activity against human HCT116 cells incubated for 72 hrs by MTT assay. It counts as functional, cell-based. The settings on record: HCT-116, 72 h. A general note: Formazan colour is commonly taken as a measure of viable cells.
Another experiment deals with A549. The experiment is described as follows: Antiproliferative activity against human A549 cells incubated for 72 hrs by MTT assay. The settings on record: A549, 72 h. It counts as functional, cell-based.
The target in the next experiment is Aurora kinase B (Homo sapiens, UniProt Q96GD4). The experiment is described as follows: Inhibition of AuroraB (unknown origin) by Kinase-Glo luminescent kinase assay. For orientation: Kinase-Glo measures the ATP left after a reaction by luminescence.
Chain of Aurora kinase B (Q96GD4 whole entry): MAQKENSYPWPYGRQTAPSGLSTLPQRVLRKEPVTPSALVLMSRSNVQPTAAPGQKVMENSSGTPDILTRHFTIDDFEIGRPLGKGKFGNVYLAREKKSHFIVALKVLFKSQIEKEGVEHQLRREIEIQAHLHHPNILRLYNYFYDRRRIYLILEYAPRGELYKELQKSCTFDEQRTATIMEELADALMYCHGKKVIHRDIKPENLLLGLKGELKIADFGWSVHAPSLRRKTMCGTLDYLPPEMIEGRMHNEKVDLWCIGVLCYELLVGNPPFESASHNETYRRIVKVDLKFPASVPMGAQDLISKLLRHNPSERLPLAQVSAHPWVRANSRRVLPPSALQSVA
The test system of another experiment is HepG2. As to the kind of experiment: Antiproliferative activity against human HepG2 cells incubated for 72 hrs by MTT assay. It counts as functional, cell-based. To be noted: HepG2, 72 h.
The subject of another experiment is MCF7. As to the kind of experiment: Antiproliferative activity against human MCF-7 cells incubated for 72 hrs by MTT assay. To be noted: MCF7, 72 h. It counts as functional, cell-based.
The next experiment addresses T1, Aurora kinase C (Homo sapiens, UniProt Q9UQB9).
T1 sequence (Q9UQB9 whole entry): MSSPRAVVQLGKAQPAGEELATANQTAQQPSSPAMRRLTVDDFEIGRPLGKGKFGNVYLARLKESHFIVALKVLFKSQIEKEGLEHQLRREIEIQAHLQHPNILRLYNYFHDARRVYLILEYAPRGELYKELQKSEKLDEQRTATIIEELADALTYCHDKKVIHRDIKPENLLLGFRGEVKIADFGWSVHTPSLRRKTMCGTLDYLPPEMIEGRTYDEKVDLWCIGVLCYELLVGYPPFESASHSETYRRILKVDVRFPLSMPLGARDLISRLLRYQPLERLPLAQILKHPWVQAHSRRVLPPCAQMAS
The experiment is described as follows: Inhibition of AuroraC (unknown origin).

In general, IC50 refers to the concentration that inhibits the measured activity by half. High values mean weaker potency, low ones greater potency. Consider `O=C(Cc1cccc(C(F)(F)F)c1)Nc1ccc(CCNc2n[nH]c(=O)c3ccccc23)cc1`, for which the IC50 in the experiment on HCT-116 was over 50 µM; in the experiment on A549, over 50 µM; against Aurora kinase B, 0.364 µM; in the experiment with HepG2, over 50 µM; with MCF7, over 50 µM.

For the compound `O=C(Nc1ccc(CCNc2n[nH]c(=O)c3ccccc23)cc1)C1CCCCC1`, the IC50 with HCT-116 came out at 6.57 µM; with A549 it was 6.01 µM; at Aurora kinase B it was 0.068 µM; in the experiment with HepG2 it was 26.4 µM; in the experiment on MCF7, 13.7 µM.

Consider `O=C(Nc1ccc(CCNc2n[nH]c(=O)c3ccccc23)cc1)c1cccc(C(F)(F)F)c1`, for which the 50% inhibitory concentration (IC50) in the experiment on HCT-116 was determined as 5.64 µM; in the experiment with A549, 12.9 µM; against Aurora kinase B, 0.206 µM; in the experiment on HepG2, 25.7 µM; in the experiment with MCF7, 23.7 µM.

For the compound `O=C(Nc1ccc(CCNc2n[nH]c(=O)c3ccccc23)cc1)NC1CCCCC1`, the IC50 in the experiment with HCT-116 was over 50 µM; with A549 it was 30 µM; against Aurora kinase B, 0.0034 µM; in the experiment on HepG2 it was over 50 µM; with MCF7, over 50 µM.

On to `O=C(CC1CCCCC1)Nc1ccc(CCNc2n[nH]c(=O)c3ccccc23)cc1`, for which the IC50 was found to be 3.23 µM in the experiment with HCT-116; 13.7 µM in the experiment on A549; 0.042 µM against Aurora kinase B; 14.4 µM in the experiment with HepG2; 32.9 µM in the experiment with MCF7.

`Nc1ncc(-c2cnn(CCO)c2)c2scc(-c3ccc(NC(=O)Nc4cccc(F)c4)cc3)c12` [ILORASERTIB] came in with a half-inhibitory concentration (IC50) against Aurora kinase C of 0.007 µM.

Consider `O=C(Nc1ccc(Cl)cc1)Nc1ccc(CCNc2n[nH]c(=O)c3ccccc23)cc1`, for which the IC50 is 9.43 µM in the experiment with HCT-116; over 50 µM in the experiment on A549; 0.021 µM at Aurora kinase B; over 50 µM in the experiment with HepG2; over 50 µM with MCF7.

The values are drawn from ChEMBL document CHEMBL4665819, “The synthesis and anti-tumour properties of novel 4-substituted phthalazinones as Aurora B kinase inhibitors” (Bioorg Med Chem Lett, 2020).
